Series [1] is described as follows: Apparent permeability across human Caco2 cells at 50 uM after 90 mins by LC-MS analysis. To be noted: caco-2, 1.5 h. The series is classed as ADME, cell-based. A general note: Caco-2 cells form a polarised layer with tight junctions and transporters.
A short description of series [2]: Apparent permeability of the compound at 50 uM after 5 hrs by PAMPA. The series is classed as ADME. (In general: PAMPA measures passive passage across an artificial lipid membrane.)
The test system of another series is Caco-2. As to the kind of experiment: Cytotoxicity against human Caco2 cells at 0.5 to 64 uM after 2 hrs by resazurin dye based fluorescence assay. The note with it: caco-2, 2 h. The series is classed as cell-based. (Alamar Blue is a resazurin reagent that responds to reducing activity.)
Series [3] in a line: Inhibition of porcine pepsin using EDANS-DABCYL as substrate pretreated for 5 mins followed by substrate addition measured for 5 mins by spectrophotometric method. Set-up: species or system Sus scrofa.

Square brackets hold non-standard residues; d marks the D form. Peptide text beside a SMILES is read from it. NMeF = CN[C@@H](Cc1ccccc1)C(=O)O; NMeI = CC[C@H](C)[C@H](NC)C(=O)O; NMeL = CN[C@@H](CC(C)C)C(=O)O; NMeS = CN[C@@H](CO)C(=O)O; Sar = CNCC(=O)O

The text below walks through data of ChEMBL document CHEMBL4266016, “Synthesis, Racemic X-ray Crystallographic, and Permeability Studies of Bioactive Orbitides from Jatropha Species” (J Nat Prod, 2018).

With `CC[C@H](C)[C@@H]1NC(=O)CNC(=O)[C@H](CC(C)C)NC(=O)[C@H]([C@@H](C)CC)NC(=O)[C@H]([C@@H](C)CC)NC(=O)[C@H](CO)N(C)C(=O)CN(C)C(=O)[C@H](CC(C)C)NC1=O` (cyclo(GIL[Sar][NMeS]IIL)), the Papp entry in series [1] and in series [2] was “Impermeable” each time.
As to `CC[C@H](C)[C@@H]1NC(=O)[C@H]([C@@H](C)O)NC(=O)CNC(=O)CNC(=O)[C@H](Cc2ccccc2)NC(=O)CNC(=O)[C@H](Cc2ccccc2)NC(=O)[C@H]([C@@H](C)CC)NC1=O` (cyclo(FGFGGTII)), the Papp result in series [1] and in series [2] was “Impermeable” in each case. Further, the Activity entry with Caco-2 was “Non-Toxic”.
In the case of `CC[C@H](C)[C@@H]1NC(=O)[C@H]([C@@H](C)O)NC(=O)CN(C)C(=O)CNC(=O)[C@H](Cc2ccccc2)NC(=O)CNC(=O)[C@H](Cc2ccccc2)N(C)C(=O)[C@H]([C@@H](C)CC)NC1=O` (cyclo(FG[Sar]TII[NMeF]G)), the Papp result in series [1] and in series [2] was “Impermeable” in each case.
With `CC[C@H](C)[C@@H]1NC(=O)CNC(=O)[C@H](CC(C)C)NC(=O)[C@H]([C@@H](C)CC)NC(=O)[C@H]([C@@H](C)CC)NC(=O)[C@H](CO)NC(=O)CN(C)C(=O)[C@H](CC(C)C)NC1=O` (cyclo(GIL[Sar]SIIL)), the Papp result in series [1] and in series [2] was “Impermeable” each time.
For the compound `CC[C@H](C)[C@@H]1NC(=O)[C@H]([C@@H](C)O)NC(=O)CN(C)C(=O)CNC(=O)[C@H](Cc2ccccc2)NC(=O)CNC(=O)[C@H](Cc2ccccc2)N(C)C(=O)[C@H]([C@@H](C)CC)N(C)C1=O` (cyclo(FG[Sar]TI[NMeI][NMeF]G)), the Papp entry in series [1] and in series [2] was “Impermeable” in each case.
For `CC[C@H](C)[C@@H]1NC(=O)[C@H]([C@@H](C)CC)N(C)C(=O)[C@H](CO)NC(=O)CN(C)C(=O)[C@H](CC(C)C)N(C)C(=O)[C@H]([C@@H](C)CC)NC(=O)CN(C)C(=O)[C@H](CC(C)C)NC1=O` (cyclo(IL[Sar]I[NMeL][Sar]S[NMeI])), the Papp result in series [1] was “Impermeable”; in series [2] it was “Permeable”.
For `CC[C@H](C)[C@@H]1NC(=O)CNC(=O)[C@H](CC(C)C)NC(=O)[C@H]([C@@H](C)CC)NC(=O)[C@H]([C@@H](C)CC)NC(=O)[C@H](CO)N(C)C(=O)CNC(=O)[C@H](CC(C)C)NC1=O` (cyclo(GILG[NMeS]IIL)), the Papp entry in series [1] and in series [2] was “Impermeable” in each case.
As to `CC[C@H](C)[C@@H]1NC(=O)CNC(=O)[C@H](CC(C)C)NC(=O)[C@H]([C@@H](C)CC)NC(=O)[C@H]([C@@H](C)CC)NC(=O)[C@H](CO)NC(=O)CNC(=O)[C@H](CC(C)C)NC1=O` (cyclo(GILGSIIL)), the Papp entry in series [1] and in series [2] was “Impermeable” throughout. The Activity entry in the series with Caco-2 was “Non-Toxic”.
As for `CC[C@H](C)[C@@H]1NC(=O)[C@H]([C@@H](C)O)NC(=O)CN(C)C(=O)CN(C)C(=O)[C@H](Cc2ccccc2)NC(=O)CN(C)C(=O)[C@H](Cc2ccccc2)N(C)C(=O)[C@H]([C@@H](C)CC)NC1=O` (cyclo(F[Sar][Sar]TII[NMeF][Sar])), the Papp result in series [1] and in series [2] was “Impermeable” throughout.
For the compound `CC(C)C[C@@H]1NC(=O)CNC(=O)[C@@H]2CCCN2C(=O)CNC(=O)[C@H](Cc2c[nH]c3ccccc23)NC(=O)[C@H](CC(C)C)NC(=O)[C@H](CC(N)=O)NC(=O)[C@H](CC(C)C)NC1=O` (cyclo(GLLNLWGP)), the Papp entry in series [1] and in series [2] was “Impermeable” in each case. The Activity result with Caco-2 is “Non-Toxic”. Besides, in series [3], the IC50 (as a rule, the point on the concentration scale where inhibition reaches its midpoint) was determined as 900 nM.
